The data set is described as follows: Neutrophils' apoptosis versus necrosis, Annexin V/PI flow cytometry. In kind it is cell-based, human. The conditions noted are these: human; 50 μM; representative plot, Figure 2; read-out: Q2-LL, viable cells (AV−/PI−). The procedure: The effect of the compounds under study on neutrophil viability was evaluated using flow cytometry. This assessment involved staining with Annexin V (AV) and propidium iodide (PI) from the BD Pharmingen™ FITC Annexin V Apoptosis Detection Kit, following the manufacturer’s protocol. […] Afterwards, the content of each well was transferred to a conical microtube and centrifuged at 400× g, at 20 °C, for 5 min. The neutrophils’ pellets were resuspended in PBS and centrifuged again under the previous conditions. The supernatant was removed, and the solution of Annexin V and PI from the kit was added, resuspending the pellet. The neutrophils were incubated in the dark at room temperature for 15 min and then diluted (dilution factor = 6) with the diluted binding buffer. […] In the flow cytometer, the fluorescence signal of at least 10,000 neutrophils per sample was collected in logarithmic mode and followed in channels 1 and 3. A polygon gate, corresponding to the neutrophil’s population, was drawn according to the light-scattering properties of neutrophils in a forward versus scatter plot. Thus, debris and other blood cells were unaccounted for in the samples. The green fluorescence corresponding to Annexin V was monitored in channel 1 and plotted as a histogram of FL1 staining, whereas the fluorescence corresponding to PI was monitored in channel 3 and plotted in the same histogram as FL3 staining. Neutrophils’ cell death was expressed as a relative percentage of viable, apoptotic, late apoptotic, and necrotic cells compared to a negative control (untreated cells).
The eﬀect of the compounds under study on neutrophil viability was evaluated using ﬂow cytometry.
This assessment involved staining with Annexin V (AV) and propidium iodide (PI) from the BD Pharmingen™ FITC Annexin V Apoptosis Detection Kit, following the manufacturer's protocol. Neutrophils (1 x10^6 cells/mL) were incubated in a 24-well plate in the dark at 37 °C for 45 minutes with the positive control (Triton X-100, […]
Afterwards, the content of each well was transferred to a conical microtube and centrifuged at 400g, at 20 °C, for 5 minutes. The neutrophils’ pellets were resuspended in PBS and centrifuged again under the previous conditions. The supernatant was removed, and the solution of Annexin V and PI from the kit was added, resuspending the pellet. The neutrophils were incubated in the dark at room temperature for 15 minutes and then diluted (dilution factor = 6) with the diluted binding buﬀer. The measurements were performed in a n Accuri C6 ﬂow cytometer (BD, Becton, Dickinson and Company, Franklin Lakes, NJ, USA), and the results were treated with BD Accuri™ C6 software. In the ﬂow cytometer, the ﬂuorescence signal of at least 10,000 neutrophils per sample was collected in logarithmic mode and followed in channels 1 and 3. A polygon gate, corresponding to the neutrophil’s population, was drawn according to the light-scattering properties of neutrophils in a forward vs scatter plot. Thus, debris and other blood cells were unaccounted for in the samples.
The green ﬂuorescence corresponding to Annexin V was monitored in channel 1 and plotted as a histogram of FL1 staining, whereas the ﬂuorescence corresponding to PI was monitored in channel 3 and plotted in the same histogram as FL3 staining. Neutrophils’ cell death was expressed as a relative percentage of viable, apoptotic, late apoptotic, and necrotic cells compared to a negative control (untreated cells). […]
Background: Flow cytometry measures light scatter and fluorescence of single cells or particles in a stream.

In the case of `CCCCCCCCCCCC(=O)OCC(CO)OC1OC(COP(=O)(OCCN)OCCN)C(O)C(O)C1O` (stereo not shown) [Compound 1h, 2-(6-(bis(2-Aminoethoxy))phosphoryl)galactopyranosyl-3-hydroxypropyl dodecanoate], the viability at 45 min, 50 µM amounted to 53%.

Values taken from publication PMC12251482, “Floridoside Phosphotriester Derivatives: Synthesis and Inhibition of Human Neutrophils’ Oxidative Burst” (Molecules, 2025).
